Laboratory results from the supplement of paper PMC10307832.

Tests used:
Assay in all cases: relative viability (nuclei count vs DMSO), 5 days (fraction); higher = more cells survive
[1] = compound: CC1=C(C=C(C=C1)NC(=O)C2=CC(=CC=C2)C(C)(C)C#N)NC3=CC4=C(C=C3)N=CN(C4=O)C [AZ628] + Cc1nc(NC(=O)N2CCC[C@H]2C(N)=O)sc1-c1ccnc(C(C)(C)C(F)(F)F)c1 [Alpelisib] (partner 2 µM)
How it was run: (§1)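 Each reported value is a median over duplicate plates. It expresses relative viability: treated-well nuclei count divided by vehicle-well nuclei count. Lung cancer cell lines in 1536-well plates were dosed by pin tool a day after seeding, alone with one drug or with a fixed anchor-drug dose plus five library-drug doses (not always all listed) in √10 steps, and nuclei were counted after 5 days.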

[2] = compound: C1CC2=C(C1)C=C(C=C2)OC3=NC(=C4C(=N3)N(C=N4)CC5=CC=C(C=C5)C6=CC=CC=C6)N[C@@H](CC7=CC=CC=C7)CO [QS11] + C[C@]1(O)C[C@@H](c2nc(-c3ccc4ccc(-c5ccccc5)nc4c3)c3c(N)nccn32)C1 [Linsitinib] (partner 1 µM)
How it was run: as §1

[3] = compound: C1CC2=C(C1)C=C(C=C2)OC3=NC(=C4C(=N3)N(C=N4)CC5=CC=C(C=C5)C6=CC=CC=C6)N[C@@H](CC7=CC=CC=C7)CO [QS11] + O=C(c1cc(Cc2n[nH]c(=O)c3ccccc23)ccc1F)N1CCN(C(=O)C2CC2)CC1 [Olaparib] (partner 8 µM)
How it was run: as §1

[4] = compound: CC1=C(C=C(C=C1)NC(=O)C2=CC(=CC=C2)C(C)(C)C#N)NC3=CC4=C(C=C3)N=CN(C4=O)C [AZ628] + Cc1nc(Nc2ncc(C(=O)Nc3c(C)cccc3Cl)s2)cc(N2CCN(CCO)CC2)n1 [Dasatinib] (partner 0.075 µM)
How it was run: as §1

Cell Line | relative viability ([1]; first compound 0.08 µM) | relative viability ([1]; first compound 0.253 µM) | relative viability ([1]; first compound 0.8 µM) | relative viability ([1]; first compound 2.53 µM) | relative viability ([1]; first compound 8 µM) | relative viability ([2]; first compound 0.08 µM) | relative viability ([2]; first compound 0.253 µM) | relative viability ([2]; first compound 0.8 µM) | relative viability ([2]; first compound 2.53 µM) | relative viability ([2]; first compound 8 µM) | relative viability ([3]; first compound 0.08 µM) | relative viability ([3]; first compound 0.253 µM) | relative viability ([3]; first compound 0.8 µM) | relative viability ([3]; first compound 2.53 µM) | relative viability ([3]; first compound 8 µM) | relative viability ([4]; first compound 0.08 µM) | relative viability ([4]; first compound 0.253 µM) | relative viability ([4]; first compound 0.8 µM) | relative viability ([4]; first compound 2.53 µM) | relative viability ([4]; first compound 8 µM)
NCI-H661 | 0.647 | 0.401 | 0.497 | 0.598 | 0.363 | 0.522 | 0.681 | 0.556 | 0.408 | 0.549 | 0.708 | 0.791 | 0.637 | 0.745 | 0.71 | 0.87 | 0.644 | 0.629 | 0.666 | 0.659
NCI-H727 | 0.499 | 0.308 | 0.301 | 0.318 | 0.23 | 0.287 | 0.296 | 0.338 | 0.316 | 0.289 | 0.653 | 0.661 | 0.654 | 0.589 | 0.753 | 0.318 | 0.3 | 0.306 | 0.23 | 0.264
NCI-H1666 | 0.79 | 0.765 | 0.522 | 0.534 | 0.425 | 0.853 | 0.644 | 0.644 | 0.53 | 0.464 | 0.78 | 0.75 | 0.697 | 0.693 | 0.516 | 0.812 | 0.733 | 0.669 | 0.665 | 0.668
COR-L23 | 0.864 | 0.732 | 0.762 | 0.808 | 0.334 | 0.938 | 1.01 | 0.767 | 0.784 | 0.625 | 0.302 | 0.322 | 0.303 | 0.271 | 0.288 | 0.499 | 0.465 | 0.493 | 0.447 | 0.347
NCI-H460 | 0.459 | 0.335 | 0.325 | 0.271 | 0.13 | 0.874 | 0.976 | 0.725 | 0.479 | 0.073 | 0.422 | 0.435 | 0.36 | 0.416 | 0.277 | 0.569 | 0.428 | 0.362 | 0.407 | 0.132
SK-MES-1 | 0.821 | 0.956 | 0.823 | 0.779 | 0.674 | 1.13 | 1.08 | 0.959 | 1.03 | 1.05 | 0.672 | 0.677 | 0.717 | 0.75 | 0.804 | 0.347 | 0.342 | 0.287 | 0.338 | 0.218
LC-2-ad | 0.968 | 0.865 | 0.982 | 0.851 | 0.466 | 0.791 | 0.832 | 0.699 | 0.817 | 0.829 | 0.668 | 0.719 | 0.551 | 0.706 | 0.781 | 0.713 | 0.419 | 0.396 | 0.365 | 0.149
BEN | 1.22 | 0.87 | 0.791 | 0.963 | 0.835 | 0.851 | 1.17 | 1.07 | 0.79 | 1.12 | 0.667 | 1.1 | 1.03 | 1.01 | 0.992 | 0.348 | 0.304 | 0.301 | 0.508 | 0.309
NCI-H1651 | 1.12 | 1.02 | 0.84 | 0.884 | 0.995 | 1.12 | 0.987 | 0.813 | 0.939 | 0.581 | 0.168 | 0.202 | 0.171 | 0.195 | 0.162 | 0.517 | 0.384 | 0.408 | 0.392 | 0.535
EKVX | 0.909 | 0.903 | 0.949 | 0.983 | 0.866 | 1.04 | 0.995 |  | 1.02 | 0.982 | 0.829 | 0.768 | 0.715 | 0.822 | 1.01 | 0.537 | 0.541 | 0.422 | 0.346 | 0.334
COR-L 105 | 0.998 | 1.27 | 0.921 | 1.03 | 0.632 | 0.964 | 0.706 | 0.929 | 0.732 | 0.883 | 0.764 | 0.56 | 0.674 | 0.716 | 0.66 | 0.358 | 0.419 | 0.285 | 0.312 | 0.244
HCC-15 | 0.967 | 0.742 | 0.707 | 0.699 | 0.392 | 0.965 | 0.993 |  | 0.857 | 0.841 | 0.668 | 0.79 | 0.61 | 0.735 | 0.634 | 0.642 | 0.496 | 0.389 | 0.404 | 0.23
SK-LU-1 | 0.733 | 1.12 | 0.802 | 0.934 | 0.512 | 1.1 | 1.08 | 0.989 | 0.71 | 0.732 | 0.354 | 0.442 | 0.466 | 0.356 | 0.452 |  | 0.179 | 0.231 | 0.208 | 0.22
LCLC-103H | 0.924 | 1.07 | 0.981 | 0.986 | 0.919 | 1.08 | 1.1 | 0.74 | 1.21 | 1.09 | 0.799 | 0.849 |  | 0.791 | 0.814 | 0.559 | 0.427 | 0.523 | 0.399 | 0.478
RERF-LC-KJ | 0.721 | 0.912 | 0.749 | 0.719 | 0.597 | 0.933 | 0.929 | 0.854 | 0.868 | 0.782 | 0.988 | 0.975 | 0.885 | 0.822 | 0.593 | 0.737 | 0.72 | 0.752 | 0.75 | 0.64
NCI-H2087 | 0.783 | 0.73 | 0.62 | 0.678 | 0.231 | 1.01 | 1.15 | 0.845 | 0.655 | 0.708 | 0.743 | 0.743 | 0.553 | 0.623 | 0.644 | 0.565 | 0.32 | 0.226 | 0.237 | 0.154
